Laboratory results published in US12544395B2, “Combination compositions comprising a beta-lactamase inhibitor and uses thereof” (priority 2018, dated 2026).

Experiments:
Assay type in all cases: cell-based
Conditions in all cases: with inhibitor at 4 μg/mL
[1] = test system: E. coli 25922; assay: Broth microdilution MIC (strain enzymes: None detected)
[2] = test system: K. pneumoniae KI (KCl); assay: Broth microdilution MIC (strain enzymes: TEM-10)
[3] = test system: K. pneumoniae 11/23 LF#2; assay: microbe, parasite or virus in culture
[4] = test system: K. pneumoniae ESBL 8 #1; assay: Broth microdilution MIC (strain enzymes: TEM-1, SHV-12)
[5] = test system: E. coli SI-V502; assay: Broth microdilution MIC (strain enzymes: TEM-29, CTX-M15)
[6] = test system: E. coli SI-AIRT-4; assay: Broth microdilution MIC (strain enzymes: TEM-1)
[7] = test system: K. pneumoniae SI-KP NO30; assay: Broth microdilution MIC (strain enzymes: TEM-26b, SHV-60, SHV-26)
[8] = test system: panel of ESBL-producing Enterobacteriaceae (40 strains); assay: Broth microdilution MIC50/MIC90 summary over the panel
[9] = test system: E. coli ESBL 4; assay: Broth microdilution MIC (strain enzymes: CTX-M15, TEM-1)
[10] = test system: E. coli 2806; assay: Broth microdilution MIC (strain enzymes: SHV-12, TEM-1)
[11] = test system: E. coli SI-LP377; assay: microbe, parasite or virus in culture
[12] = test system: E. coli 3174; assay: Broth microdilution MIC (strain enzymes: TEM-1, CTXM-15)
[13] = test system: K. pneumoniae 115468; assay: Broth microdilution MIC (strain enzymes: TEM-1)
[14] = test system: K. pneumoniae ESBL 7 #1; assay: Broth microdilution MIC (strain enzymes: SHV-12, TEM-1)
[15] = test system: K. pneumoniae KP 4; assay: Broth microdilution MIC (strain enzymes: SHV-2a, SHV-5, TEM-1)
[16] = test system: K. pneumoniae 3151; assay: Broth microdilution MIC (strain enzymes: SHV-12, TEM-1)
[17] = test system: E. coli Si-FDL-GES; assay: microbe, parasite or virus in culture
[18] = test system: E. coli SI-NO36; assay: Broth microdilution MIC (strain enzymes: SHV-11, TEM-1)
[19] = test system: K. pneumoniae 170375; assay: Broth microdilution MIC (strain enzymes: SHV-12, CTX-M15 and TEM-1)

## O=C(O)[C@H]1/C(=C/CO)O[C@@H]2CC(=O)N21 [Clavulanic acid, clavulanic acid, reference compound]
[1]
  MIC of cefalexin (LEX): 0.25 µg/mL
  MIC of cefdinir (CDR): 0.25 µg/mL
  MIC of cefixime (CFM): 0.5 µg/mL
  MIC of ceftibuten (CTB): 0.5 µg/mL
[2]
  MIC of cefalexin (LEX): 0.125 µg/mL
  MIC of cefdinir (CDR): 0.125 µg/mL
  MIC of cefixime (CFM): 0.125 µg/mL
  MIC of ceftibuten (CTB): 0.06 µg/mL
[3]
  MIC of cefalexin (LEX): 0.5 µg/mL
  MIC of cefdinir (CDR): 0.5 µg/mL
  MIC of cefixime (CFM): 2 µg/mL
  MIC of ceftibuten (CTB): 0.25 µg/mL
[4]
  MIC of cefalexin (LEX): 0.06 µg/mL
  MIC of cefdinir (CDR): 0.06 µg/mL
  MIC of cefixime (CFM): 0.06 µg/mL
  MIC of ceftibuten (CTB): 0.03 µg/mL
[5]
  MIC of cefalexin (LEX): 1 µg/mL
  MIC of cefdinir (CDR): 1 µg/mL
  MIC of cefixime (CFM): 1 µg/mL
  MIC of ceftibuten (CTB): 0.5 µg/mL
[6]
  MIC of cefalexin (LEX): 0.25 µg/mL
  MIC of cefdinir (CDR): 0.25 µg/mL
  MIC of cefixime (CFM): 0.25 µg/mL
  MIC of ceftibuten (CTB): 0.5 µg/mL
[7]
  MIC of cefalexin (LEX): 0.125 µg/mL
  MIC of cefdinir (CDR): 0.125 µg/mL
  MIC of cefixime (CFM): 0.06 µg/mL
  MIC of ceftibuten (CTB): 0.06 µg/mL
[8]
  Cefdinir MIC50: 0.5 µg/mL
  Cefdinir MIC90: 2 µg/mL
  Cefixime MIC50: 0.5 µg/mL
  Cefixime MIC90: 2 µg/mL
  Cefpodoxime MIC50: 0.5 µg/mL
  Cefpodoxime MIC90: 4 µg/mL
  Ceftibuten MIC50: 0.25 µg/mL
  Ceftibuten MIC90: 2 µg/mL
  Cephalexin MIC50: 16 µg/mL
  Cephalexin MIC90: 32 µg/mL
[9]
  MIC of cefalexin (LEX): 1 µg/mL
  MIC of cefdinir (CDR): 1 µg/mL
  MIC of cefixime (CFM): 1 µg/mL
  MIC of ceftibuten (CTB): 0.5 µg/mL
[10]
  MIC of cefalexin (LEX): 0.25 µg/mL
  MIC of cefdinir (CDR): 0.25 µg/mL
  MIC of cefixime (CFM): 1 µg/mL
  MIC of ceftibuten (CTB): 0.25 µg/mL
[11]
  MIC of cefalexin (LEX): 1 µg/mL
  MIC of cefdinir (CDR): 1 µg/mL
  MIC of cefixime (CFM): 0.5 µg/mL
  MIC of ceftibuten (CTB): 0.125 µg/mL
[12]
  MIC of cefalexin (LEX): 0.25 µg/mL
  MIC of cefdinir (CDR): 0.25 µg/mL
  MIC of cefixime (CFM): 0.5 µg/mL
  MIC of ceftibuten (CTB): 0.5 µg/mL
[13]
  MIC of cefalexin (LEX): 0.06 µg/mL
  MIC of cefdinir (CDR): 0.06 µg/mL
  MIC of cefixime (CFM): 0.125 µg/mL
  MIC of ceftibuten (CTB): 0.25 µg/mL
[14]
  MIC of cefalexin (LEX): 0.5 µg/mL
  MIC of cefdinir (CDR): 0.5 µg/mL
  MIC of cefixime (CFM): 0.25 µg/mL
  MIC of ceftibuten (CTB): 0.125 µg/mL
[15]
  MIC of cefalexin (LEX): 0.125 µg/mL
  MIC of cefdinir (CDR): 0.125 µg/mL
  MIC of cefixime (CFM): 0.125 µg/mL
  MIC of ceftibuten (CTB): 2 µg/mL
[16]
  MIC of cefalexin (LEX): 0.125 µg/mL
  MIC of cefdinir (CDR): 0.125 µg/mL
  MIC of cefixime (CFM): 0.125 µg/mL
  MIC of ceftibuten (CTB): 0.06 µg/mL
[17]
  MIC of cefalexin (LEX): 1 µg/mL
  MIC of cefdinir (CDR): 1 µg/mL
  MIC of cefixime (CFM): 0.5 µg/mL
  MIC of ceftibuten (CTB): 0.25 µg/mL
[18]
  MIC of cefalexin (LEX): 0.25 µg/mL
  MIC of cefdinir (CDR): 0.25 µg/mL
  MIC of cefixime (CFM): 0.5 µg/mL
  MIC of ceftibuten (CTB): 0.25 µg/mL
[19]
  MIC of cefalexin (LEX): 1 µg/mL
  MIC of cefdinir (CDR): 1 µg/mL
  MIC of cefixime (CFM): 0.5 µg/mL
  MIC of ceftibuten (CTB): 0.06 µg/mL
